Entries after “also recorded” stand apart in the source; their conditions may differ. Where no end group is shown, it is not given here.
Legend:
[1] = test system: ERK-NOS3 complexes; design: method as in PMID 10899167; details: BAECs treated with bradykinin; ref [9]; cited from earlier work
[2] = test system: NOS3; details: endothelial cells, inhibition and dominant negative experiments, via S114 phosphorylation; ref [10]; cited from earlier work
[3] = test system: NOS1; details: previous studies; ref [4]; cited from earlier work
Excerpt: While there is substantial nonspecific binding inherent in the NOS1 sample, it is quite clear that there is no observable specific binding. […] The NOS1 isoform lacks the pentabasic sequence in the autoinhibitory loop that we hypothe ...

[4] = test system: NOS3; details: previous report, different (SignalChem GST) ERK2, bovine NOS3; ref [6]; cited from earlier work
Protocol: Portions of the NOS3 phosphorylation assays were analyzed for nitric oxide production, using PKA as a positive control. […] It is important to note that we cannot interpret the degree of NOS3 phosphorylation, just that NOS3 was phosphorylate ...

[5] = test system: NOS3; details: earlier work, ERK2-treated NOS3; ref [6]; cited from earlier work
[6] = biological target: NOS3; details: full-length NOS3; previously reported; ref [4]; cited from earlier work
Excerpt: While there is substantial nonspecific binding inherent in the NOS1 sample, it is quite clear that there is no observable specific binding. […] This was not surprising since others have qualitatively shown an interaction between NOS3 and JNK [10] and the MAP kinases have similarities in the requirements of binding to activators and substrates. Lack of binding to NOS1 by all three MAP kinases examined thus far strengthens the interpretation that NOS3 is a node for MAP kinase signaling, while NOS1 and NOS2 are not.

[7] = test system: NOS3; assay: In vitro kinase assay with NOS3, phospho-specific immunoblotting; assay type: biochemical, human; details: active kinases with NOS3, 5 and 60 min
Protocol: (§1) Active (HIS‐NOS3) was incubated alone or with individual kinases (ERK2, p38α, JNK1α1, and PKA) in 100 µL reaction buffer (20 mM HEPES, 0.5 mM DTT, 5 mM MgCl2, 0.5 mM ATP, and 10% glycerol at a pH of 7.4). The reactions were performed at 22‐25 °C for up to 1 h, and for the examination of nitric oxide activity, samples were incubated on ice for the immediate detection of NO via the oxyhemoglobin to methemoglobin assay (see below). For immunoblotting analysis to examine phosphorylation, kinase samples were quenched with 2× sample buffer spiked with 25 mM DTT and heated to 95 °C for 5 min. Boiled samples (at equal volumes) were electrophoresed and transferred to PDVF for immunoblot staining.
All samples were loaded at equal volumes on 3–8% gradient tris‐acetate gels. All gels were transferred to PVDF membranes and transferred for either 2 h at 40V or for 20V overnight. Membranes were blocked with one block (Li‐Cor Biosciences) for 30 m and incubated with respective antibodies (at manufacturers recommend concentrations for immunoblotting, 1 : 500 for the anti‐pS600‐NOS3) overnight at 4 °C. Blots were brought to RT for 30 m and washed 3× with 1X TBST for 10 m, probed with a fluorometric secondary antibody (Li‐Cor IRDye®) for 1 h, and washed before visualizing with a Li‐Cor Odyssey.

[8] = test system: NOS3; assay: Oxyhemoglobin assay of NO production by kinase-treated NOS3; assay type: biochemical, human; details: oxyHb assay, 2.5 µM NOS3 with ERK2 14 nM (N = 10), p38α 14 nM (N = 4), JNK1α1-GST 63 nM (N = 3) or PKA 14 nM (N = 4), 30 min; versus untreated NOS3
Protocol: as §1
The oxyhemoglobin assay (oxyHb assay) is a spectroscopic method that measures the oxidative reaction of oxyhemoglobin at 421 nm (oxyHb) and methemoglobin (metHb) at 401 nm. Kinase assay reactions quenched on ice were used to measure NO synthesis and consumption. All oxyHb reactions were performed at 25 °C in a BioTek 96‐well UV‐visible spectrophotometer. Each reaction (100 µL total volume) was mixed with 40 µL of reaction buffer (1 μM FAD, 1 μM FMN, 10% glycerol, 12 nM BH4, 100 μM L‐arginine, 10 mM Tris/HCl, pH 7.5 at 25°, 250 μM CaCl2, 0.20 mg·mL^−1 BSA, 0.31 mg Hemoglobin, 7–10 U Superoxide Dismutase, 7–10 U Catalase, and 17 μg Calmodulin) and up to 40 µL (6–10 µg) of phosphorylated NOS3. Absorbance at 401 nm and 421 nm were read for 1 m at 15‐s intervals. To initiate the reaction, 20 µL of 200 mM NADPH reconstituted in Tris/HCl (1.4 M pH 7.5 at room temperature) was added. Measurements were recorded for 10 min at 15‐s intervals.
To calculate NOS3 activity, the change in absorbance/unit time was divided by the extinction coefficient (ε401‐421 = 77 200 M ^−1cm^−1 (ε401 = 38 600 M ^−1cm^−1)). This yielded NOS3 activity in units of molar change/unit time. Activity of kinase exposed NOS3 was compared to the NOS3 control activity (comparably treated NOS3 but not phosphorylated), and the data are presented as a percent of the control NOS3.

In the case of RPPGFSPFR [bradykinin], the “effect on ERK-NOS3 complexes” value [1] is given as “caused ERK to disassociate from NOS3 complexes and over time the complex reassociated”.

For “JNK2: JNK2, shown to inhibit cellular NO production”, the “cellular NO production” value [2] is listed as “inhibited cellular NO production”.

For “mitogen‐activated protein kinase 1 [ERK2]”, the “binding to NOS1” value [3] is given as “no binding to NOS1”, the “inhibition of NOS3 activity” value [4] is given as “approximately 50%” and the “conformation of NOS3” value [5] is given as “presented an altered conformation from untreated NOS3”. For the same substance, the Kd [6] was 160 nM, the “phosphorylation of NOS3 at S114” value ([7]; immunoblot with anti-pS114) was “did not meaningfully phosphorylate S114 when compared to JNK1α1 and p38α” and the “phosphorylation of NOS3 at S600” value ([7]; immunoblot with anti-pS600) was “at S600; also recorded: phosphorylates S600; also recorded: robust when compared to JNK1α1”. For the same substance, the “NO production / NOS3 activity” value [8] was “do not significantly change NO production; also recorded: did not alter in vitro NOS3 activity”.
